Experimental data taken from PubChem BioAssay (NCI).
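Growth conditions: 96-well plates. Treatment: test compound, 48 hours, 5 concentrations. Analysis: linear interpolation between bracketing concentrations; unreached endpoints set to highest concentration. TGI: concentration producing complete growth inhibition.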

Key:
Test in all cases: NCI-60 cell line screen, 48 h
NCI-H522 lung = tested on: NCI-H522 lung
CAKI-1 renal = tested on: CAKI-1 renal
SK-MEL-2 melanoma = tested on: SK-MEL-2 melanoma
CCRF-CEM leukemia = tested on: CCRF-CEM leukemia
A549 NSCLC = tested on: A549 NSCLC
MALME-3M melanoma = tested on: MALME-3M melanoma
UACC-62 melanoma = tested on: UACC-62 melanoma
786-0 renal = tested on: 786-0 renal
U251 CNS = tested on: U251 CNS
XF 498 CNS = tested on: XF 498 CNS
SF-539 CNS = tested on: SF-539 CNS
RXF 393 renal = tested on: RXF 393 renal
SNB-78 CNS = tested on: SNB-78 CNS
KM20L2 colon = tested on: KM20L2 colon
RXF-631 renal = tested on: RXF-631 renal
ACHN renal = tested on: ACHN renal
IGROV1 ovarian = tested on: IGROV1 ovarian
NCI-H226 lung = tested on: NCI-H226 lung
HT29 colon = tested on: HT29 colon
OVCAR-8 ovarian = tested on: OVCAR-8 ovarian
UACC-257 melanoma = tested on: UACC-257 melanoma
EKVX NSCLC = tested on: EKVX NSCLC
HL-60(TB) leukemia = tested on: HL-60(TB) leukemia
NCI-H460 lung = tested on: NCI-H460 lung
UO-31 renal = tested on: UO-31 renal
MOLT-4 leukemia = tested on: MOLT-4 leukemia
OVCAR-5 ovarian = tested on: OVCAR-5 ovarian
DMS 273 small cell lung = tested on: DMS 273 small cell lung
HCT-116 colon = tested on: HCT-116 colon
SN12C renal = tested on: SN12C renal
HOP-62 NSCLC = tested on: HOP-62 NSCLC
OVCAR-4 ovarian = tested on: OVCAR-4 ovarian
DLD-1 colon = tested on: DLD-1 colon
SW-620 colon = tested on: SW-620 colon
SR leukemia = tested on: SR leukemia
K-562 leukemia = tested on: K-562 leukemia
SNB-75 CNS = tested on: SNB-75 CNS
OVCAR-3 ovarian = tested on: OVCAR-3 ovarian
KM12 colon = tested on: KM12 colon
HOP-92 NSCLC = tested on: HOP-92 NSCLC
M19-MEL melanoma = tested on: M19-MEL melanoma
HCC-2998 colon = tested on: HCC-2998 colon
SF-268 CNS = tested on: SF-268 CNS
SK-MEL-28 melanoma = tested on: SK-MEL-28 melanoma
NCI-H23 lung = tested on: NCI-H23 lung
DMS 114 small cell lung = tested on: DMS 114 small cell lung
SK-MEL-5 melanoma = tested on: SK-MEL-5 melanoma
TK-10 renal = tested on: TK-10 renal
M14 melanoma = tested on: M14 melanoma
SNB-19 CNS = tested on: SNB-19 CNS
SK-OV-3 ovarian = tested on: SK-OV-3 ovarian
LXFL 529 NSCLC = tested on: LXFL 529 NSCLC
COLO 205 colon = tested on: COLO 205 colon
LOX IMVI melanoma = tested on: LOX IMVI melanoma
RPMI-8226 leukemia = tested on: RPMI-8226 leukemia
HOP-18 NSCLC = tested on: HOP-18 NSCLC
HCT-15 colon = tested on: HCT-15 colon
SF-295 CNS = tested on: SF-295 CNS

Molecule `CO/C=C/c1cc2c(cc1C(OC)OC)OCO2` has a TGI (NCI-H522 lung) greater than 100 µM, a TGI (CAKI-1 renal) greater than 100 µM and a TGI (SK-MEL-2 melanoma) greater than 100 µM. It also gave a TGI (CCRF-CEM leukemia) greater than 100 µM, a TGI (A549 NSCLC) greater than 100 µM and a TGI (MALME-3M melanoma) greater than 100 µM. It also gave a TGI (UACC-62 melanoma) of 69.1 µM, a TGI (786-0 renal) greater than 100 µM and a TGI (U251 CNS) greater than 100 µM. It also gave a TGI (XF 498 CNS) of 84.8 µM, a TGI (SF-539 CNS) greater than 100 µM and a TGI (RXF 393 renal) greater than 100 µM. For the same molecule, the TGI (SNB-78 CNS) was greater than 100 µM, the TGI (KM20L2 colon) was greater than 100 µM and the TGI (RXF-631 renal) was greater than 100 µM. The TGI (ACHN renal) was greater than 100 µM, the TGI (IGROV1 ovarian) was greater than 100 µM and the TGI (NCI-H226 lung) was greater than 100 µM. It also gave a TGI (HT29 colon) greater than 100 µM, a TGI (OVCAR-8 ovarian) greater than 100 µM and a TGI (UACC-257 melanoma) greater than 100 µM. It also gave a TGI (EKVX NSCLC) greater than 100 µM, a TGI (HL-60(TB) leukemia) of 18.9 µM and a TGI (NCI-H460 lung) greater than 100 µM. It also gave a TGI (UO-31 renal) greater than 100 µM, a TGI (MOLT-4 leukemia) greater than 100 µM and a TGI (OVCAR-5 ovarian) greater than 100 µM. For the same molecule, the TGI (DMS 273 small cell lung) was greater than 100 µM, the TGI (HCT-116 colon) was greater than 100 µM and the TGI (SN12C renal) was greater than 100 µM. The TGI (HOP-62 NSCLC) was 75 µM, the TGI (OVCAR-4 ovarian) was greater than 100 µM and the TGI (DLD-1 colon) was greater than 100 µM. For the same molecule, the TGI (SW-620 colon) was greater than 100 µM, the TGI (SR leukemia) was greater than 100 µM and the TGI (K-562 leukemia) was greater than 100 µM. For the same molecule, the TGI (SNB-75 CNS) was 36.8 µM, the TGI (OVCAR-3 ovarian) was 80.9 µM and the TGI (KM12 colon) was greater than 100 µM. It also gave a TGI (HOP-92 NSCLC) greater than 100 µM, a TGI (M19-MEL melanoma) greater than 100 µM and a TGI (HCC-2998 colon) greater than 100 µM. It also gave a TGI (SF-268 CNS) greater than 100 µM, a TGI (SK-MEL-28 melanoma) greater than 100 µM and a TGI (NCI-H23 lung) greater than 100 µM. It also gave a TGI (DMS 114 small cell lung) greater than 100 µM, a TGI (SK-MEL-5 melanoma) of 42.8 µM and a TGI (TK-10 renal) greater than 100 µM. For the same molecule, the TGI (M14 melanoma) was 87.9 µM, the TGI (SNB-19 CNS) was greater than 100 µM and the TGI (SK-OV-3 ovarian) was 79.3 µM.
`O=C(CSc1nnc(-c2ccc(N=Cc3ccc(Cl)cc3)cc2)o1)Nc1ccccc1` gave a TGI (NCI-H522 lung) of 35.5 µM, a TGI (SK-MEL-2 melanoma) greater than 100 µM and a TGI (CCRF-CEM leukemia) greater than 100 µM. For the same molecule, the TGI (A549 NSCLC) was greater than 100 µM, the TGI (LXFL 529 NSCLC) was greater than 100 µM and the TGI (MALME-3M melanoma) was greater than 100 µM. It also gave a TGI (UACC-62 melanoma) greater than 100 µM, a TGI (COLO 205 colon) greater than 100 µM and a TGI (786-0 renal) of 47 µM. The TGI (LOX IMVI melanoma) was 36.4 µM, the TGI (U251 CNS) was greater than 100 µM and the TGI (XF 498 CNS) was greater than 100 µM. It also gave a TGI (RPMI-8226 leukemia) greater than 100 µM, a TGI (RXF 393 renal) of 96.9 µM and a TGI (SNB-78 CNS) greater than 100 µM. It also gave a TGI (KM20L2 colon) greater than 100 µM, a TGI (HOP-18 NSCLC) greater than 100 µM and a TGI (ACHN renal) greater than 100 µM. It also gave a TGI (NCI-H226 lung) greater than 100 µM, a TGI (HT29 colon) greater than 100 µM and a TGI (OVCAR-8 ovarian) greater than 100 µM. For the same molecule, the TGI (UACC-257 melanoma) was greater than 100 µM, the TGI (EKVX NSCLC) was greater than 100 µM and the TGI (HL-60(TB) leukemia) was greater than 100 µM. For the same molecule, the TGI (NCI-H460 lung) was greater than 100 µM, the TGI (UO-31 renal) was greater than 100 µM and the TGI (MOLT-4 leukemia) was greater than 100 µM. The TGI (DMS 273 small cell lung) was 70.6 µM, the TGI (HCT-116 colon) was 31.1 µM and the TGI (SN12C renal) was greater than 100 µM. The TGI (HOP-62 NSCLC) was greater than 100 µM, the TGI (OVCAR-4 ovarian) was greater than 100 µM and the TGI (HCT-15 colon) was greater than 100 µM. The TGI (SW-620 colon) was greater than 100 µM, the TGI (SR leukemia) was greater than 100 µM and the TGI (K-562 leukemia) was greater than 100 µM. It also gave a TGI (SNB-75 CNS) greater than 100 µM, a TGI (M19-MEL melanoma) greater than 100 µM and a TGI (SF-295 CNS) greater than 100 µM. The TGI (SF-268 CNS) was greater than 100 µM, the TGI (SK-MEL-28 melanoma) was greater than 100 µM and the TGI (NCI-H23 lung) was greater than 100 µM. The TGI (DMS 114 small cell lung) was greater than 100 µM, the TGI (SK-MEL-5 melanoma) was greater than 100 µM and the TGI (TK-10 renal) was greater than 100 µM. For the same molecule, the TGI (M14 melanoma) was greater than 100 µM, the TGI (SNB-19 CNS) was greater than 100 µM and the TGI (SK-OV-3 ovarian) was greater than 100 µM.
